Test results from article PMC2714422 (Journal of medicinal chemistry, 2009).
Entries after “also recorded” stand apart in the source; their conditions may differ.

Key:
[1] = tested on: squamous cell carcinoma (SCC) tumors; assay: K6/ODC transgenic mouse squamous cell carcinoma model; assay type: in vivo
SK-Mel cells = assay: Cellular polyamine levels in SK-Mel cells, compound alone; assay type: cell-based, human; conditions: 10 µM for 24 hrs
MDA-MB-231 cells = assay: Cellular polyamine depletion, PTI plus DFMO; assay type: cell-based, human; conditions: 5 days, 30 µM 5 or 0.1 µM 11 with 5.0 mM DFMO, 0.5 µM spermidine, 1.0 mM aminoguanidine
[2] = hydrochloride salt form of 5; prior formulation work, ref not given; cited from earlier work
[3] = DFMO 0.5% in drinking water + 0.5 mg/kg 11 i.p. twice daily, 4 weeks

NCCC[C@](N)(C(=O)O)C(F)F [DFMO, α-difluoromethylornithine, reference compound]
tumor growth effect of DFMO alone ([1]; DFMO alone in drinking water): moderate tumor growth inhibitory effects; also recorded: weak effect | DFMO alone treated tumors that re-grew ([1]; DFMO alone, 6 weeks off-treatment after 4 week treatment): 11 of 12

CCCCCCCCCCCCCCCC(=O)NCCCC[C@H](N)C(=O)NCCCNCCCCNCCCN [Compound 10, L-Lys-ε-(palmitoyl)-N^1-spermine]
level of cellular polyamines, compound added alone (SK-Mel cells): none of these agents influenced the level of cellular polyamines

CCCCCCCC(=O)NCCCC[C@H](N)C(=O)NCCCNCCCCNCCCN [Compound 8]
level of cellular polyamines, compound added alone (SK-Mel cells): none of these agents influenced the level of cellular polyamines

CCCCCCCCCCCCCCCC(=O)NCCCC[C@@H](N)C(=O)NCCCNCCCCNCCCN [Compound 11, D-Lys-ε-(palmitoyl)-N^1-spermine]
toxicity at efficacious dose level ([1]; 11 at 0.5 mg/kg i.p. twice daily with DFMO, mice): no apparent toxicity | SCCs with complete or near-complete responses (>95% volume reduction) [1, 3]: 71% | number of SCCs with complete responses out of 17 [1, 3]: 9 | polyamine levels of the cell, combination with DFMO (MDA-MB-231 cells): potent reduction in the polyamine levels

NCCCC[C@@H](N)C(=O)NCCCNCCCCNCCCN [Compound 5, D-Lys-Spm]
oral bioavailability, hydrochloride salt form [2]: < 1%
